In US12226424B2, “Target protein degradation compounds, their anti-tumor use, their intermediates and use of intermediates” (ShanghaiTech University, priority 2018, dated 2025):
Like-named read-outs stand apart in the source and are kept apart here.

Tested on: SR cells
Assay: Half inhibitory concentration (IC50) on ALK-positive SR cell proliferation (CCK-8)
Format: cell-based
Settings: Homo sapiens, SR cells, CCK-8
Method: ALK-positive SR cells (human large cell immunoblastic lymphoma) were purchased from the American Type Culture Collection (ATCC); H3122 cells (human non-small cell lung cancer) were from the Shanghai University of Science and Technology Lin Haifan's research group.
The cells used in this present disclosure were cultured in a 37° C. incubator containing 5% CO2.
SR cells were seeded in 100 μL RPMI1640 complete medium at a density of 10,000 cells/well. 100 μL of the inoculated cells were treated with 0.5 μL diluted PROTAD compound of the present disclosure to be tested at 10 successively decreasing concentrations (starting at the highest concentration of 10 μM; 5-fold serial dilutions) After the cells were treated with the drug for 72 h, cell viability was determined according to the CCK-8 reagent operating instructions. The negative control was DMSO, and the positive control was a commercial inhibitor. After CCK-8 treatment for 2 h, the value of O.D.450 was measured using a microplate reader.

[1] = 72 h drug treatment, read-out: IC50 (nM)/ SR cell line

Compound	IC50 [1] [nM]	IC50 (72 h, read-out: IC50 on proliferation of ALK-positive cells SR) [nM]
CCc1cc2c(cc1N1CCC(N3CCN(C(=O)CCCCSc4cccc5c4CN(C4CCC(=O)NC4=O)C5=O)CC3)CC1)C(C)(C)c1[nH]c3cc(C#N)ccc3c1C2=O (centres unmarked) [SIAIS262099, 8-(4-(4-(5-((2-(2,6-dioxopiperidin-3-yl)-1-oxoisoindolin-4-yl)thio)pentanoyl)piperazin-1-yl)piperidin-1-yl)-9-ethyl-6,6-dimethyl-11-oxo-6,11-dihydro-5H-benzo[b]carbazole-3-carbonitrile]	0.93 ± 1.11	
CCc1cc2c(cc1N1CCC(N3CCN(C(=O)CCCCCSc4cccc5c4C(=O)N(C4CCC(=O)NC4=O)C5=O)CC3)CC1)C(C)(C)c1[nH]c3cc(C#N)ccc3c1C2=O (centres unmarked) [SIAIS219007, 8-(4-(4-(6-((2-(2,6-dioxopiperidin-3-yl)-1,3-dioxoisoindolin-4-yl)thio)hexanoyl)piperazin-1-yl)piperidin-1-yl)-9-ethyl-6,6-dimethyl-11-oxo-6,11-dihydro-5H-benzo[b]carbazole-3-carbonitrile]	50.1	
COc1cc(N2CCC(NC(=O)COCCSc3cccc4c3CN(C3CCC(=O)NC3=O)C4=O)CC2)ccc1Nc1ncc(Cl)c(Nc2ccccc2P(C)(C)=O)n1 (centres unmarked) [SIAIS219139, N-(1-(4-((5-chloro-4-((2-(dimethylphosphoryl)phenyl)amino)pyrimidin-2-yl)amino)-3-methoxyphenyl)piperidin-4-yl)-2-(2-((2-(2,6-dioxopiperidin-3-yl)-1-oxoisoindolin-4-yl)thio)ethoxy)acetamide]	1.08 ± 0.1	
CCc1cc2c(cc1N1CCC(NC(=O)CSc3cccc4c3CN(C3CCC(=O)NC3=O)C4=O)CC1)C(C)(C)c1[nH]c3cc(C#N)ccc3c1C2=O (centres unmarked) [SIAIS262161, N-(1-(3-cyano-9-ethyl-6,6-dimethyl-11-oxo-6,11-dihydro-5H-benzo[b]carbazol-8-yl)piperidin-4-yl)-2-((2-(2,6-dioxopiperidin-3-yl)-1-oxoisoindolin-4-yl)thio)acetamide]	1.86	
COc1cc(N2CCC(NC(=O)COCCOCCSc3cccc4c3CN(C3CCC(=O)NC3=O)C4=O)CC2)ccc1Nc1ncc(Cl)c(Nc2ccccc2P(C)(C)=O)n1 (centres unmarked) [SIAIS219140, N-(1-(4-((5-chloro-4-((2-(dimethylphosphoryl)phenyl)amino)pyrimidin-2-yl)amino)-3-methoxyphenyl)piperidin-4-yl)-2-(2-(2-((2-(2,6-dioxopiperidin-3-yl)-1-oxoisoindolin-4-yl)thio)ethoxy)ethoxy)acetamide]	5.08 ± 0.62	
COc1cc(N2CCC(NC(=O)CCCCSc3cccc4c3CN(C3CCC(=O)NC3=O)C4=O)CC2)ccc1Nc1ncc(Cl)c(Nc2ccccc2P(C)(C)=O)n1 (centres unmarked) [SIAIS219136, N-(1-(4-((5-chloro-4-((2-(dimethylphosphoryl)phenyl)amino)pyrimidin-2-yl)amino)-3-methoxyphenyl)piperidin-4-yl)-5-((2-(2,6-dioxopiperidin-3-yl)-1-oxoisoindolin-4-yl)thio)pentanamide]	0.43 ± 0.09	
CCc1cc2c(cc1N1CCC(N3CCN(C(=O)COCCSc4cccc5c4CN(C4CCC(=O)NC4=O)C5=O)CC3)CC1)C(C)(C)c1[nH]c3cc(C#N)ccc3c1C2=O (centres unmarked) [SIAIS249066, 8-(4-(4-(2-(2-((2-(2,6-dioxopiperidin-3-yl)-1-oxoisoindolin-4-yl)thio)ethoxy)acetyl)piperazin-1-yl)piperidin-1-yl)-9-ethyl-6,6-dimethyl-11-oxo-6,11-dihydro-5H-benzo[b]carbazole-3-carbonitrile]	0.17 ± 0.14	
COc1cc(N2CCC(NC(=O)CCCCCCSc3cccc4c3CN(C3CCC(=O)NC3=O)C4=O)CC2)ccc1Nc1ncc(Cl)c(Nc2ccccc2P(C)(C)=O)n1 (centres unmarked) [SIAIS219138, N-(1-(4-((5-chloro-4-((2-(dimethylphosphoryl)phenyl)amino)pyrimidin-2-yl)amino)-3-methoxyphenyl)piperidin-4-yl)-7-((2-(2,6-dioxopiperidin-3-yl)-1-oxoisoindolin-4-yl)thio)heptanamide]	0.29 ± 0.01	
CCc1cc2c(cc1N1CCC(N3CCN(C(=O)CCCSc4cccc5c4CN(C4CCC(=O)NC4=O)C5=O)CC3)CC1)C(C)(C)c1[nH]c3cc(C#N)ccc3c1C2=O (centres unmarked) [SIAIS262098, 8-(4-(4-(4-((2-(2,6-dioxopiperidin-3-yl)-1-oxoisoindolin-4-yl)thio)butanoyl)piperazin-1-yl)piperidin-1-yl)-9-ethyl-6,6-dimethyl-11-oxo-6,11-dihydro-5H-benzo[b]carbazole-3-carbonitrile]	0.29 ± 0.21	
CCc1cc2c(cc1N1CCC(N3CCN(CCCCCCSc4cccc5c4CN(C4CCC(=O)NC4=O)C5=O)CC3)CC1)C(C)(C)c1[nH]c3cc(C#N)ccc3c1C2=O (centres unmarked) [SIAIS262159, 8-(4-(4-(6-((2-(2,6-dioxopiperidin-3-yl)-1-oxoisoindolin-4-yl)thio)hexyl)piperazin-1-yl)piperidin-1-yl)-9-ethyl-6,6-dimethyl-11-oxo-6,11-dihydro-5H-benzo[b]carbazole-3-carbonitrile]	1	
CCc1cc2c(cc1N1CCC(NC(=O)CCCCCSc3cccc4c3C(=O)N(C3CCC(=O)NC3=O)C4=O)CC1)C(C)(C)c1[nH]c3cc(C#N)ccc3c1C2=O (centres unmarked) [SIAIS219014, N-(1-(3-cyano-9-ethyl-6,6-dimethyl-11-oxo-6,11-dihydro-5H-benzo[b]carbazol-8-yl)piperidin-4-yl)-6-((2-(2,6-dioxopiperidin-3-yl)-1,3-dioxoisoindolin-4-yl)thio)hexanamide]	101	
CCc1cc2c(cc1N1CCC(NC(=O)COCCOCCSc3cccc4c3C(=O)N(C3CCC(=O)NC3=O)C4=O)CC1)C(C)(C)c1[nH]c3cc(C#N)ccc3c1C2=O (centres unmarked) [SIAIS219022, N-(1-(3-cyano-9-ethyl-6,6-dimethyl-11-oxo-6,11-dihydro-5H-benzo[b]carbazol-8-yl)piperidin-4-yl)-2-(2-(2-((2-(2,6-dioxopiperidin-3-yl)-1,3-dioxoisoindolin-4-yl)thio)ethoxy)ethoxy)acetamide]	80.5	
COc1cc(N2CCC(N3CCN(C)CC3)CC2)ccc1Nc1ncc(Cl)c(Nc2ccccc2P(C)(C)=O)n1 [Brigatinib, reference compound]	2.1 ± 1.2	10.6
CCc1cc2c(cc1N1CCC(N3CCN(C(=O)COCCOCCSc4cccc5c4CN(C4CCC(=O)NC4=O)C5=O)CC3)CC1)C(C)(C)c1[nH]c3cc(C#N)ccc3c1C2=O (centres unmarked) [SIAIS249067, 8-(4-(4-(2-(2-(2-((2-(2,6-dioxopiperidin-3-yl)-1-oxoisoindolin-4-yl)thio)ethoxy)ethoxy)acetyl)piperazin-1-yl)piperidin-1-yl)-9-ethyl-6,6-dimethyl-11-oxo-6,11-dihydro-5H-benzo[b]carbazole-3-carbonitrile]	0.38 ± 0.18	
CCc1cc2c(cc1N1CCC(N3CCN(C(=O)CCCSc4cccc5c4C(=O)N(C4CCC(=O)NC4=O)C5=O)CC3)CC1)C(C)(C)c1[nH]c3cc(C#N)ccc3c1C2=O (centres unmarked) [SIAIS219006, 8-(4-(4-(4-((2-(2,6-dioxopiperidin-3-yl)-1,3-dioxoisoindolin-4-yl)thio)butanoyl)piperazin-1-yl)piperidin-1-yl)-9-ethyl-6,6-dimethyl-11-oxo-6,11-dihydro-5H-benzo[b]carbazole-3-carbonitrile]	16.4	
CCc1cc2c(cc1N1CCC(N3CCN(C(=O)CCCCCSc4cccc5c4CN(C4CCC(=O)NC4=O)C5=O)CC3)CC1)C(C)(C)c1[nH]c3cc(C#N)ccc3c1C2=O (centres unmarked) [SIAIS262100, 8-(4-(4-(6-((2-(2,6-dioxopiperidin-3-yl)-1-oxoisoindolin-4-yl)thio)hexanoyl)piperazin-1-yl)piperidin-1-yl)-9-ethyl-6,6-dimethyl-11-oxo-6,11-dihydro-5H-benzo[b]carbazole-3-carbonitrile]	0.52 ± 0.48	
